From article PMC9278656 (Journal of medicinal chemistry, 2021)
Structures can show the parent of a compound that is named as a salt. Where two headings read alike, the source gives them in different places.

Key:
Ionophore activity = conditions: larger number indicates weaker ionophore activity
[1] = target: Human Norepinephrine Transporter (Homo sapiens, UniProt P23975); assay: CEREP safety screen, norepinephrine transporter; format: binding; conditions: 10 μM
p53^R175H = assay: Immunofluorescence with conformation-specific antibodies PAB1620/PAB240; format: cell-based
Human hERG = Human hERG (Homo sapiens, UniProt Q12809); assay: CEREP safety screen, hERG [3H]-dofetilide; format: binding; conditions: 10 μM
H1299 cells (p53 null) = assay: Oxidative stress detection, CellROX Green, flow cytometry; format: cell-based; conditions: 0.75 μM compound, 24 h, relative to ZMC1
TOV-112D (p53^R175H) = assay: Cell growth inhibition assay; format: cell-based; conditions: Homo sapiens, TOV112D, 72 h, read-out: EC50 TOV-112D
[2] = cited from earlier work
[3] = Hydrolytic stability in SGF and PBS; format: physicochemical; conditions: 6 h
TOV-112D cells = assay: Combination of C85 with γ-irradiation or etoposide, cell growth inhibition; format: cell-based; conditions: Homo sapiens, TOV112D, read-out: EC50, C85 only
[4] = tested on: Rat Sodium Channel site 2; assay: CEREP safety screen, sodium channel site 2; format: binding; conditions: 10 μM
Caco-2 permeability = format: in vitro ADME; conditions: human
[5] = NCr nu/nu nude, mouse, in vivo, ip
[6] = tested on: MDA-MB-468 (p53^R273H) tumors; assay: Xenograft tumor assay, MDA-MB-468; format: in vivo, nude mice NCr nu/nu; conditions: non Zn-deficient mutation, Suppl. Figure S2
[7] = tested on: p53 wild type and p53 null cell lines; assay: Cell kill in p53 wild type and p53 null cell lines; format: cell-based; conditions: allele selectivity, Suppl. Figure S1

Human hERG, sequence (Q12809 whole entry): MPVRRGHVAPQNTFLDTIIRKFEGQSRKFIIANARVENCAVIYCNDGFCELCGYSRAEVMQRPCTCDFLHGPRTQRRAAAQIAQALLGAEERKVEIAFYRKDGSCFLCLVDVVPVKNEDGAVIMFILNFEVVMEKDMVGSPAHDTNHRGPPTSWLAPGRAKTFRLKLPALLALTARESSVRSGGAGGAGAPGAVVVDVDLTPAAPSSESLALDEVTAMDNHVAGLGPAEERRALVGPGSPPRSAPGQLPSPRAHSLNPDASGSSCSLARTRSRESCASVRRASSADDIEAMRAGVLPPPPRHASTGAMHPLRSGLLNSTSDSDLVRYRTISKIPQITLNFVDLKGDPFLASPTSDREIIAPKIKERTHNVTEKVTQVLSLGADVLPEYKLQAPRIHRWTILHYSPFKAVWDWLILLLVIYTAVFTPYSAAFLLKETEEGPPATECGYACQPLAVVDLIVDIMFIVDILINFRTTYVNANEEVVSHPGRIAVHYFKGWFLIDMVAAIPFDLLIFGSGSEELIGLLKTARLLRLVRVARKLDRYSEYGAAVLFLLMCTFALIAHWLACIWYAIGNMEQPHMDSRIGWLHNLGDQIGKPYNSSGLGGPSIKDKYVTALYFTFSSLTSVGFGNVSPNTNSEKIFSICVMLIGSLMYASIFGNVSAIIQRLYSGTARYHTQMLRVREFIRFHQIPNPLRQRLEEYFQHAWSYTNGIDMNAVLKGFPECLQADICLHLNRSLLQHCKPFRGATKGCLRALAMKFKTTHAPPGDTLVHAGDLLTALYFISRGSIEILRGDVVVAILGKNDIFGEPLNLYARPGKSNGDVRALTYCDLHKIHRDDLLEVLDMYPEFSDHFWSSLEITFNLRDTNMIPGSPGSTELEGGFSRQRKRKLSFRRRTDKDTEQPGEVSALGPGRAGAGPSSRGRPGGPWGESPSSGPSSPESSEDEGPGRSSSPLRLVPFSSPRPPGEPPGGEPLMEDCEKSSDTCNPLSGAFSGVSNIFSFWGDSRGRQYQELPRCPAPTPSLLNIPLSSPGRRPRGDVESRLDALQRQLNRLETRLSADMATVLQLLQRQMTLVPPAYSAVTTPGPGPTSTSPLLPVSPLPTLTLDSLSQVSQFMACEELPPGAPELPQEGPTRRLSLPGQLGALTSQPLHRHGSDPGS
Human Norepinephrine Transporter, sequence (P23975 whole entry): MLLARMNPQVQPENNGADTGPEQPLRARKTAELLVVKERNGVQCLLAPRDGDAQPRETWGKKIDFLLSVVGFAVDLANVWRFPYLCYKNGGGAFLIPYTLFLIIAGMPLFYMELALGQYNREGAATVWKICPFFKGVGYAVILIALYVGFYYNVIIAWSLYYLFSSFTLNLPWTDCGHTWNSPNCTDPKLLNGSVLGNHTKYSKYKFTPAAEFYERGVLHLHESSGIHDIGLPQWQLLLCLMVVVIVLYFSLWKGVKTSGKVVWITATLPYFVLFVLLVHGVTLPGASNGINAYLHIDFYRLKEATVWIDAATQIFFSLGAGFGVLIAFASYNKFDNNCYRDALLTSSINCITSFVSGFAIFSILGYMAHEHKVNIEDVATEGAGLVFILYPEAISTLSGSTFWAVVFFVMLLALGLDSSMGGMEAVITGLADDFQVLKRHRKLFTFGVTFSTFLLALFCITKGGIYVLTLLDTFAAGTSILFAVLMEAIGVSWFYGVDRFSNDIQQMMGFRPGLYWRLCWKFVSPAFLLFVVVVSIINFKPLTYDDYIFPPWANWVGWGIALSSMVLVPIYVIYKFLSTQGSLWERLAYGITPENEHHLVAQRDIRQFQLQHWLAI

Structure (SMILES)	Ionophore Ji drug/Ji DMSO (Ionophore activity)	Refolding p53^R175H → wild type (p53^R175H)	also measured
CC(C)(C)/C(=N\NC(=S)N1CCC1)c1ccccn1 [A13, (E)-N′-(2,2-Dimethyl-1-(pyridin-2-yl)propylidene)azetidine-1-carbothiohydrazide]	14.4 -log[mol/m^2s]		
C/C(=N\Nc1nc2ccccc2s1)c1cc(OCCN(C)C)ccn1 [C28, (E)-2-((2-(1-(2-(Benzo[d]thiazol-2-yl)hydrazineylidene)ethyl)pyridin-4-yl)oxy)-N,N-dimethylethan-1-amine HCl]	11.6 -log[mol/m^2s]	YES	Activity against the norepinephrine transporter, in words [1]: showed activity; hERG inhibition, in words (Human hERG): strong hERG inhibition
C/C(=N\NC(=S)N1CCC1)c1ccccc1 [A9, (E)-N′-(1-Phenylethylidene)azetidine-1-carbothiohydrazide]	11.6 -log[mol/m^2s]		
C/C(=N\Nc1nccn1C)c1ccccn1 [C78, 2-(1-(2-(1-Methyl-1H-imidazol-2-yl)hydrazono)ethyl)pyridine HCl]	11.8 -log[mol/m^2s]	YES	
C/C(=N\Nc1nc2ccccc2n1CCN1CCOCC1)c1ccccn1 [C42, (E)-4-(2-(2-(2-(1-(Pyridin-2-yl)ethylidene)hydrazineyl)-1H-benzo[d]imidazol-1-yl)ethyl)morpholine HCl]	11.6 -log[mol/m^2s]	YES	ROS (ROS/ZMC1 ROS) (H1299 cells (p53 null)): 1.0; hERG inhibition, in words (Human hERG): strong hERG inhibition
C/C(=N\Nc1nc2ccccc2s1)c1cc(OCCN2CCN(C)CC2)ccn1 [C64, (E)-2-(2-(1-(4-(2-(4-Methylpiperazin-1-yl)ethoxy)pyridin-2-yl)ethylidene)hydrazineyl)benzo[d]thiazole HCl]	11.6 -log[mol/m^2s]		
C/C(=N\NC(=S)N1CCC1)c1ncccc1C [A12, (E)-N′-(1-(3-Methylpyridin-2-yl)ethylidene)azetidine-1-carbothiohydrazide]	11.6 -log[mol/m^2s]		EC50 (TOV-112D (p53^R175H)): 11 nM
C/C(=N\NC(=S)N1CCC1)c1cccc(C)n1 [A11, (E)-N′-(1-(6-Methylpyridin-2-yl)ethylidene)azetidine-1-carbothiohydrazide]	12.6 -log[mol/m^2s]	YES	
C/C(=N\Nc1nc2ccccc2n1C)c1ccccn1 [C9, (E)-1-Methyl-2-(2-(1-(pyridin-2-yl)ethylidene)hydrazinyl)-1H-benzo[d]imidazole]	11.6 -log[mol/m^2s]	YES	Aqueous solubility [2]: low aqueous solubility; hERG inhibition, in words (Human hERG): strong hERG inhibition
C/C(=N\Nc1nc2ccccc2s1)c1ncccn1 [C77, (E)-2-(2-(1-(Pyrimidin-2-yl)ethylidene)hydrazineyl)benzo[d]thiazole AcOH]	11.8 -log[mol/m^2s]		Activity against the norepinephrine transporter, in words [1]: showed activity
C/C(=N\Nc1nc2ccccc2s1)c1cc(OCCO)ccn1 [C61, (E)-2-((2-(1-(2-(Benzo[d]thiazol-2-yl)hydrazineylidene)ethyl)pyridin-4-yl)oxy)ethan-1-ol]	11.6 -log[mol/m^2s]		
COC/C(=N\Nc1nc2ccccc2s1)c1ccccn1 [C65, (Z)-2-(2-(2-Methoxy-1-(pyridin-2-yl)ethylidene)hydrazineyl)benzo[d]thiazole]	11.6 -log[mol/m^2s]	YES	
C/C(=N\NC(=S)NC1CCN(c2ccccn2)CC1)c1ccccn1 [A4, (E)-2-(1-(Pyridin-2-yl)ethylidene)-N-(1-(pyridin-2-yl)piperidin-4-yl)hydrazine-1-carbothioamide]	14.5 -log[mol/m^2s]		
C/C(=N\Nc1nc2ccccc2n1C)c1ncccn1 [C89, (E)-1-Methyl-2-(2-(1-(pyrimidin-2-yl)ethylidene)hydrazineyl)-1H-benzo[d]imidazole HCl]	12.0 -log[mol/m^2s]		hERG inhibition, in words (Human hERG): strong hERG inhibition
C/C(=N\NC(=S)N1CCC1)c1cc(N(C)C)ccn1 [A14, (E)-N′-(1-(4-(Dimethylamino)pyridin-2-yl)ethylidene)azetidine-1-carbothiohydrazide]	12.5 -log[mol/m^2s]		
COCCOc1ccc2nc(N/N=C(\C)c3ccccn3)sc2c1 [C23, (E)-6-(2-Methoxyethoxy)-2-(2-(1-(pyridin-2-yl)ethylidene)hydrazineyl)benzo[d]thiazole AcOH]	11.6 -log[mol/m^2s]	YES	
C/C(=N\Nc1nc2ccccc2n1CCN(C)C)c1ccccn1 [C27, (E)-N,N-Dimethyl-2-(2-(2-(1-(pyridin-2-yl)ethylidene)hydrazineyl)-1H-benzo[d]imidazol-1-yl)ethan-1-amine HCl]	11.6 -log[mol/m^2s]	YES	
C/C(=N\Nc1nc2ccccc2n1CCN1CCC(F)(F)C1)c1ccccn1 [C85, (E)-1-(2-(3,3-Difluoropyrrolidin-1-yl)ethyl)-2-(2-(1-(pyridin-2-yl)ethylidene)hydrazineyl)-1H-benzo[d]imidazole HCl]	12.2 -log[mol/m^2s]	could induce a wild-type conformational change and YES	ROS (ROS/ZMC1 ROS) (H1299 cells (p53 null)): 0.8; Compound remaining ([3]; SGF pH 1–2, 37 °C): > 82%; Compound remaining ([3]; SGF pH 1–2, room temperature): > 92%; EC50 (TOV-112D cells; light or radiation study, 72 h): 710 nM; EC50 (TOV-112D cells): 570 nM; hERG inhibition, in words (Human hERG): potent hERG inhibition
C/C(=N\Nc1nc2ccccc2o1)c1cc(OCCN(C)C)ccn1 [C35, (E)-2-((2-(1-(2-(Benzo[d]oxazol-2-yl)hydrazineylidene)ethyl)pyridin-4-yl)oxy)-N,N-dimethylethan-1-amine HCl]		YES	
CS/C(=N\N=C(/C)c1ccccn1)N1CCC1 [A5, Methyl (Z)-N-((E)-1-(Pyridin-2-yl)ethylidene)azetidine-1-carbohydrazonothioate]	12.4 -log[mol/m^2s]		
C/C(=N\NC(=O)N1CCC1)c1ccccn1 [A6, (E)-N′-(1-(Pyridin-2-yl)ethylidene)azetidine-1-carbohydrazide]	12.9 -log[mol/m^2s]		
C/C(=N\Nc1nc2ccccc2n1CCN1CCCC1)c1ccccn1 [C69, (E)-2-(2-(1-(Pyridin-2-yl)ethylidene)hydrazineyl)-1-(2-(pyrrolidin-1-yl)ethyl)-1H-benzo[d]imidazole HCl]	11.6 -log[mol/m^2s]	YES	Activity against the norepinephrine transporter, in words [1]: showed activity; ROS (ROS/ZMC1 ROS) (H1299 cells (p53 null)): 1.2; EC50 (TOV-112D (p53^R175H)): 93 nM; Activity against the sodium channel, in words [4]: showed activity; hERG inhibition, in words (Human hERG): strong hERG inhibition
C/C(=N\Nc1ccc2ccccc2n1)c1ccccn1 [C22, (E)-2-(2-(1-(Pyridin-2-yl)ethylidene)hydrazineyl)quinoline]	11.6 -log[mol/m^2s]	YES	
C/C(=N\NC(=S)N1CCC1)c1cnccn1 [A10, (E)-N′-(1-(Pyrazin-2-yl)ethylidene)azetidine-1-carbothiohydrazide]	11.8 -log[mol/m^2s]	YES	EC50 (TOV-112D (p53^R175H)): 22 nM
C/C(=N\Nc1nc2ccccc2s1)c1ccccn1 [C1, (E)-2-(2-(1-(Pyridin-2-yl)ethylidene)hydrazinyl)benzo[d]thiazole]	11.6 -log[mol/m^2s]	induced a wild-type conformational change	Papp at 90 min, 5 μM (Caco-2 permeability): 4.4 ± 0.1 ×10⁻⁶ cm/s; Activity against the norepinephrine transporter, in words [1]: showed activity; Well tolerated dose without significant weight loss [5]: up to 30 mg/kg; Tumor growth inhibition of p53^R273H tumors [6]: did not inhibit the tumor growth; Refolding p53^R175H → wild type (p53^R175H; listed as Cl): YES; Cell kill in p53 wild type and p53 null cell lines [7]: almost no cell kill; Aqueous solubility [2]: low aqueous solubility; Activity against the sodium channel, in words [4]: showed activity
C/C(=N\Nc1nc2ccccc2s1)c1cc(N(C)C)ccn1 [C21, (E)-2-(1-(2-(Benzo[d]thiazol-2-yl)hydrazineylidene)ethyl)-N,N-dimethylpyridin-4-amine]	11.6 -log[mol/m^2s]	YES	
C/C(=N\NC(=S)N(C)C)c1ccccn1 [A1, (E)-N,N-Dimethyl-2-(1-(pyridin-2-yl)ethylidene)hydrazine-1-carbothioamide]	12.8 -log[mol/m^2s]	YES	Papp at 90 min, 5 μM (Caco-2 permeability): 7.3 ± 0.1 ×10⁻⁶ cm/s
C/C(=N\Nc1nc2ccccc2o1)c1ccccn1 [C2, (E)-2-(2-(1-(Pyridin-2-yl)ethylidene)hydrazinyl)benzo[d]oxazole]	11.8 -log[mol/m^2s]	induced a wild-type conformational change and YES	Papp at 90 min, 5 μM (Caco-2 permeability): 10.6 ± 0.5 ×10⁻⁶ cm/s; Cell kill in p53 wild type and p53 null cell lines [7]: almost no cell kill; Aqueous solubility [2]: low aqueous solubility
